Values joined by “and” are separate entries in the source; they are usually repeats but may differ in a detail not shown here. Equal values may be shown once. Active and inactive are the calls of the source.
Tests used:
[1] = Luminescence Cell-Based Dose Confirmation HTS to Identify Activators of 5'UTR Stem-Loop Driven Alpha-Synuclein mRNA Translation in H4 Neuroglioblastoma Cells. [Related pubchem assays: 1829 (Project Summary), 1814 (Primary HTS)]; format: functional
H4 = assay: Luminescence Cell-Based Dose Response HTS to Identify Activators of 5'UTR Stem-Loop Driven Prion Protein mRNA Translation in H4 Neuroglioblastoma Cells. [Related pubchem assays: 1829 (Project Summary), 1814 (Primary HTS)]; format: functional; conditions: Homo sapiens
NS3 = NS3 (Hepatitis C virus, UniProt A3EZJ3); assay: PubChem AID 2173; parameters: species or system Hepacivirus hominis
[2] = molecular target: T1, Tyrosine-protein phosphatase non-receptor type 7 (Homo sapiens, UniProt P35236); format: functional
T1 sequence (P35236 whole entry): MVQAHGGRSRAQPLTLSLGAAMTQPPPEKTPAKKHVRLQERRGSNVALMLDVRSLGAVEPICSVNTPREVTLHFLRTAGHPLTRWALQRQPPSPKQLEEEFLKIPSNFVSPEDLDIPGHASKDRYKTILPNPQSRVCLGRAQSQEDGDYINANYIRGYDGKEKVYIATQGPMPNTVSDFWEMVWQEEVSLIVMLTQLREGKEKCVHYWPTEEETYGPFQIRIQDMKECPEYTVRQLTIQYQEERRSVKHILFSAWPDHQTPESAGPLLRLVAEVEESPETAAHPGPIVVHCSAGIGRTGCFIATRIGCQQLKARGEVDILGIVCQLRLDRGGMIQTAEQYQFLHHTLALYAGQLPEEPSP

[3] = molecular target: Glyceraldehyde-3-phosphate dehydrogenase (Homo sapiens, UniProt P04406)
[4] = molecular target: T2, Dual specificity protein phosphatase 6 (Rattus norvegicus, UniProt Q64346)
T2 sequence (Q64346 whole entry): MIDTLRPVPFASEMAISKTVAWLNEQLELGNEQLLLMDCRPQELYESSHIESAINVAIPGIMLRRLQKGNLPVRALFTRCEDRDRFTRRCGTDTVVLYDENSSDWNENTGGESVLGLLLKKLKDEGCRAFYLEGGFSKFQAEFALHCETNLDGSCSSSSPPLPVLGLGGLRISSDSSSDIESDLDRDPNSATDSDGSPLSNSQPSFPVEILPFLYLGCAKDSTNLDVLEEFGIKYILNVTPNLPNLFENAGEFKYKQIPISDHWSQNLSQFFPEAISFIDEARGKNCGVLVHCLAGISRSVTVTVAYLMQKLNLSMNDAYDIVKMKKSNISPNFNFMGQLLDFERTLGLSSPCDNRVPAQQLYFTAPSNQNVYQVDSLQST

[5] = molecular target: T2, Dual specificity protein phosphatase 6; format: functional
[6] = molecular target: Luciferin 4-monooxygenase (Photinus pyralis, UniProt P08659); assay: inhibition of purified Photinus pyralis luciferase – biochemical, luminescence, dose response (AID 1891)
[7] = Luminescence Cell-Based Dose Confirmation HTS to Identify Inhibitors of Platelet Dense Granule Release. [Related pubchem assays: 1663 (Primary HTS), 1678 (Summary of Project)]; format: functional
[8] = CCR5-tropic HIV-1 fusion blockers – cell-based, CCR5-tropic Env, dose response (AID 2279); format: functional
[9] = molecular target: Acyl-homoserine lactone acylase PvdQ (Pseudomonas aeruginosa (strain LESB58), UniProt Q9I194); assay: PvdQ acylase enzyme activity blockers – biochemical, fluorescence, plate reader and imaging, cherry-picks, dose response (AID 493231)
X-box-binding protein 1 = X-box-binding protein 1 (Homo sapiens, UniProt P17861); format: functional, Cricetulus griseus;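 note: confirmatory dose-response counter-screen serving a CHOP assay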
Tumor necrosis factor = Tumor necrosis factor (Homo sapiens, UniProt P01375); assay: analog potency on TNFa NF-kB signaling – cell-based, revised, SAR follow-up (AID 2337); format: functional
[10] = molecular target: T3, Nucleotide-binding oligomerization domain-containing protein 1 (Homo sapiens, UniProt Q9Y239); assay: blockers of NOD1 pathway activity – revised, SAR follow-up (AID 2333); format: functional
T3 sequence (Q9Y239 whole entry): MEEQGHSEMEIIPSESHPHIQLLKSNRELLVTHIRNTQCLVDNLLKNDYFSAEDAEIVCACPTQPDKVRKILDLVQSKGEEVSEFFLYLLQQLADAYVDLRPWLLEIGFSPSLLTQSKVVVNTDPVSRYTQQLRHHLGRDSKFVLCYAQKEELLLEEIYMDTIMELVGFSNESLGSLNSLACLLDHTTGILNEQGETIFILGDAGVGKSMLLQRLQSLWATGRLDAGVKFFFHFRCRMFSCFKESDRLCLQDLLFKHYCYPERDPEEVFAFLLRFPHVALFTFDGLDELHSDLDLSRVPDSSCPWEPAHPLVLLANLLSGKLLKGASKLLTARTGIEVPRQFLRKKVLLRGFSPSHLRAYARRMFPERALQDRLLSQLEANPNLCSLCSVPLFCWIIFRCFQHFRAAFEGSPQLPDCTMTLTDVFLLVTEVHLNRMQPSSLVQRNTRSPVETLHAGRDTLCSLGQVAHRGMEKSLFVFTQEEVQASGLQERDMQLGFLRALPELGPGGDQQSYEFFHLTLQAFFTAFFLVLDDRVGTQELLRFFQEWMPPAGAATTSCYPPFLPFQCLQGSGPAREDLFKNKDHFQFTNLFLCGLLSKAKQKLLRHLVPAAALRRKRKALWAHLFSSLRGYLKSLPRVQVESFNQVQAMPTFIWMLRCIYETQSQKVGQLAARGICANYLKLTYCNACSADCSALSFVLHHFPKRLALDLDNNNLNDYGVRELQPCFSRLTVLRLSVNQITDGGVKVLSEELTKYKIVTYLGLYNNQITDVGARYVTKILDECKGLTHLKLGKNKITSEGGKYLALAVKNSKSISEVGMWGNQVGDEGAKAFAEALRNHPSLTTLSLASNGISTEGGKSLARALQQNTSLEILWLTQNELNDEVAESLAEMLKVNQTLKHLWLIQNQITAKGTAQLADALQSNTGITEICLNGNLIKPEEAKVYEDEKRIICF

[11] = molecular target: Nucleotide-binding oligomerization domain-containing protein 2 (Homo sapiens, UniProt Q9HC29); assay: PubChem AID 2334; format: functional
HEK293 = assay: cells; conditions: Homo sapiens;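 note: cells exposed to compound for 14 hours overnight before viability readout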
[12] = molecular target: T4, Eukaryotic translation initiation factor 2-alpha kinase 3 (Homo sapiens, UniProt Q9NZJ5); assay: Dose response cell-based high-throughput screening assay to measure PERK inhibition. [Related pubchem assays: 1416 ]; format: functional
T4 sequence (Q9NZJ5 whole entry): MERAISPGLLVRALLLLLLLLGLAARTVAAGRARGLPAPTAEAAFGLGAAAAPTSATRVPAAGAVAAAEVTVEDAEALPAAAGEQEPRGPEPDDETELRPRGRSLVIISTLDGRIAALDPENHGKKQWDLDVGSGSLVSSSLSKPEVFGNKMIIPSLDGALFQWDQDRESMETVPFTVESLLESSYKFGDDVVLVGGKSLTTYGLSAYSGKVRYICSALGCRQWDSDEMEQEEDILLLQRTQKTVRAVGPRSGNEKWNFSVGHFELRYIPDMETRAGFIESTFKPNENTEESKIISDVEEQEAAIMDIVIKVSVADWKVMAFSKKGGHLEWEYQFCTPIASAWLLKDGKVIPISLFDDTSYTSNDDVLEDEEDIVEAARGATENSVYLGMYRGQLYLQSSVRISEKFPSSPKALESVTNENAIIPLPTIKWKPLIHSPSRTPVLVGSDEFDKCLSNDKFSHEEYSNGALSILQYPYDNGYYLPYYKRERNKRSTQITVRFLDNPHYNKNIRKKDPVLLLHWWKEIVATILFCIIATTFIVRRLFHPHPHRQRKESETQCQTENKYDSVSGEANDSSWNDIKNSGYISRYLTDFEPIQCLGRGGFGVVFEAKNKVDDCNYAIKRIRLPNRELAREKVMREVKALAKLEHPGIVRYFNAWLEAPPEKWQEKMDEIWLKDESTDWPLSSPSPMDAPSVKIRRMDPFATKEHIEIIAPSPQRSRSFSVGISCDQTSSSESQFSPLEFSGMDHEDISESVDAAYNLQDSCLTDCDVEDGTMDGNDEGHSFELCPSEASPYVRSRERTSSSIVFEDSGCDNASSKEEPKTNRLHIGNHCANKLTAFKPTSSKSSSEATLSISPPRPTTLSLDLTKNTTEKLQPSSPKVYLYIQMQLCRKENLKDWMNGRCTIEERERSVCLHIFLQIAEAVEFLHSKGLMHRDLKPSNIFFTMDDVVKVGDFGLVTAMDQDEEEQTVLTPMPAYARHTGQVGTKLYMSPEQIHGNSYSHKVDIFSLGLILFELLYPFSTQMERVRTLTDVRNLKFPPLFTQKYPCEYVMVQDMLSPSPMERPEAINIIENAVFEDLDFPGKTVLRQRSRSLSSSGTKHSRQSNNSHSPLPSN

[13] = molecular target: T4, Eukaryotic translation initiation factor 2-alpha kinase 3; assay: Counterscreen assay for PERK inhibitors: Dose response cell-based high throughput screening assay to measure inhibition of PERK at 6 hours. [Related pubchem assays: 1522, 1416 ]; format: functional
Vero = assay: viability of Vero cells under compound – cytotoxicity control for flavivirus capping enzyme inhibitors (AID 588742); format: functional; conditions: Chlorocebus sabaeus
Genome polyprotein = Genome polyprotein (dengue virus type 2, UniProt P29990); assay: flavivirus cap methylation enzyme inhibition – biochemical, confirmation dose response, primary screen (AID 588689); format: functional
[14] = molecular target: Peroxisome proliferator-activated receptor gamma/Nuclear receptor coactivator 2 (Homo sapiens, UniProt P37231); format: functional;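 note: agonist potency for raising coactivator recruitment to the receptor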
[15] = molecular target: Peroxisome proliferator-activated receptor gamma/Nuclear receptor coactivator 1 (Homo sapiens, UniProt P37231); format: functional;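 note: agonist potency as compounds enhance coactivator SRC-1 recruitment to PPARgamma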
[16] = molecular target: Peroxisome proliferator-activated receptor gamma/Nuclear receptor coactivator 3 (Homo sapiens, UniProt P37231); format: functional;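 note: agonist potency for raising coactivator recruitment to the receptor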
[17] = viability of uninfected HEp-2 cells – cell-based, HTS, cytotoxicity control for RSV inhibitor project, dose response (AID 2410); format: functional; conditions: human respiratory syncytial virus
Protein Rev = Protein Rev (Human immunodeficiency virus type 1 group M subtype B (isolate HXB2)(HIV-1), UniProt P04618); assay: blockers of HIV Rev/RRE RNA complex – biochemical, fluorescence polarization, HIV-1, dose response (AID 434976); parameters: species or system Human immunodeficiency virus 1
[18] = molecular target: Female germline-specific tumor suppressor gld-1 (Caenorhabditis elegans, UniProt Q17339); assay: blockers of GLD-1/TGE RNA complex formation – biochemical, fluorescence polarization, C. elegans, dose response (AID 2802);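 note: fluorescence polarization of labeled TGE RNA bound by purified gld-1 protein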

Compound: COc1ccc(C(=O)C2=C(O)C(=O)N(c3ccccn3)C2c2ccc(C(C)C)cc2)cc1 (stereo unspecified)
- EC50 [1]: 22.4 µM (active)
- EC50 (H4): 17 µM (active)
- IC50 (NS3): 6.24 µM (active)

Compound: CC(C)CNc1nc(=O)n(-c2ccc(F)cc2)c(=O)[nH]1
- IC50 [2]: > 100 µM (not active)
- IC50 [3]: > 100 µM (not active)
- IC50 [4]: > 100 µM (inactive)
- IC50 [5]: > 100 µM (inactive)

Compound: CCOC(=O)c1sc(N2C(=O)C(O)=C(C(=O)c3ccc(C)o3)C2c2cccc([N+](=O)[O-])c2)nc1C (stereo unspecified)
- EC50 [6]: > 112 µM (not active)
- EC50 [7]: 18.5 µM (active)
- IC50 [8]: 41.1 µM (active)

Compound: CCOC(=O)c1ccc(N2C(=O)C(C)=C(C)C2=O)cc1
- AC50 [9]: 25 µM (active)

Compound: Cc1cc(/C=N/Nc2nc(N)ncc2[N+](=O)[O-])c(C)n1-c1cccc(C(F)(F)F)c1
- Absolute IC50 (XBP1) (X-box-binding protein 1): 10 µM

Compound: Cc1cc2ccccn2c1C(=O)C(=O)O
- IC50 [2]: > 100 µM (not active)
- IC50 [3]: > 100 µM (not active)
- IC50 [4]: > 100 µM (inactive)
- IC50 [5]: > 100 µM (inactive)

Compound: O=C(Nc1ccc(Br)cc1)c1ccc(CN2CCc3ccccc3C2)cc1
- IC50 (Tumor necrosis factor): 1.5 µM (active) and 10.9 µM (active)
- IC50 [10]: 1.03 µM (active) and 399 nM (active)
- IC50 [11]: 1.62 µM (active)
- IC50 (HEK293): > 20 µM (inactive)

Compound: CN1CCOCCOCCN(C)C(=O)N2CCOCCOCCN(CCOCC2)C1=O
- EC50 [12]: > 55.7 µM (not active)
- EC50 [13]: > 55.7 µM (not active)

Compound: Cc1ccc2c(c1)C1C3CCC(C3)C1[S+]([O-])N2 (stereo unspecified)
- AC50 [9]: 25.6 µM (active)

Compound: Cc1cc(N2C(=O)C(O)=C(C(=O)c3ccc(C)o3)C2c2cccc(Oc3ccccc3)c2)no1 (stereo unspecified)
- IC50 (NS3): 1.95 µM (active)
- CC50 (Vero): > 40 µM (active)
- IC50 (Genome polyprotein): 32 µM (active)

Compound: O=C(CSc1ccc2nnc(-c3ccc(Cl)cc3)n2n1)N1CCCc2ccccc21
- EC50 [14]: 27.4 µM (not active)
- EC50 [15]: 50.1 µM (not active)
- EC50 [16]: 52.3 µM (not active)

Compound: O=C(Nc1nc2ccccc2n1Cc1ccccc1Cl)c1ccco1
- IC50 (Tumor necrosis factor): > 20 µM (inactive)
- IC50 [10]: > 20 µM (inactive)
- IC50 [11]: > 20 µM (inactive)
- IC50 (HEK293): > 20 µM (inactive)

Compound: Cc1ccc2cc(CN(CC3CCCO3)C(S)=NCc3ccco3)c(O)nc2c1C (stereo unspecified)
- CC50 [17]: 24.3 µM (active)
- IC50 (cells): 24.6 µM (active)

Compound: Nc1cccc(C(=O)OCC(=O)Nc2cccc3c2C(=O)c2ccccc2C3=O)c1
- IC50 (Protein Rev): 5.22 µM (active)
- IC50 [18]: 1.96 µM (active)

Compound: CCc1cccc(C)c1NC(=O)Nc1ccc2c(c1)OCO2
- EC50 [12]: > 55.7 µM (not active)
- EC50 [13]: > 55.7 µM (not active)

Compound: O=C(/C=C/c1ccc(OCc2c(F)cccc2Cl)cc1)N1CCOCC1
- CC50 [17]: 15.9 µM (active)
- IC50 (cells): 10.4 µM (active)

— ChEMBL document CHEMBL1201862, “PubChem BioAssay data set” (2004)
